Laboratory results taken from US9850470B2, “Polyene-specific glycosyltransferase derived from Pseudonocardia autotrophica” (INHA-INDUSTRY PARTNERSHIP INSTITUTE, priority 2013, dated 2017).

Columns and labels:
[1] = solubility of NPP compared with nystatin; assay type: physicochemical
[2] = hemolytic activity of NPP compared with nystatin; assay type: cell-based
[3] = relative to nystatin which contains only a saccharide
[4] = relative to nystatin, which contains only mycosamine

- solubility compared with nystatin (in words) [1, 3]: higher solubility
- higher solubility than nystatin [1, 4]: more than 300 fold
Structure (SMILES): CC(=O)NC1C(OC2C(C)OC(OC3/C=C/C=C/C=C/C=C/CC/C=C/C=C/C(C)C(O)C(C)C(C)OC(=O)CC(O)CC(O)CC(O)CCC(O)C(O)CC4(O)CC(O)C(C(=O)O)C(C3)O4)C(O)C2N)OC(CO)C(O)C1O (stereo not shown) [NPP, nystatin-like polyene (NPP)]
- hemolytic activity compared with nystatin (in words) [2, 3]: lower hemolytic activity
- lower hemolytic activity than nystatin [2, 4]: 10 fold
